The target of one series is T1, tubulin (Sus scrofa, UniProt P02550+P02554).
T1 construct: purchased cytoskeleton BK011P
Kind of series: Inhibition test of tubulin monomer polymerization (Tubulin polymerization assay kit, fluorescence). The series is classed as biochemical. To be noted: 5 µL of 12.5 µM compound solution; fluorescence ex 360 nm / em 420 nm, 37°C; larger value = lower inhibitory efficiency. The protocol:
Tubulin polymerization assay kit (cytoskeleton, Cat. # BK011P) was used to conduct the compound inhibition test of tubulin monomer polymerization.
Before the test, the 96-well plate (Corning Costar, Cat. # 3686) supplied with the kit was first placed in a microplate reader (MD, SpectraMax M5) and heated to 37°C, maintained for 10 minutes. The 96-well plate was then removed, and 5 µL of 12.5 µM compound solution or blank solution was added thereto. The 96-well plate was then placed back into the microplate reader and incubated at 37°C for 1 minute to heat the compound solution to 37°C. The 96-well plate was removed and 50 µL of reaction mixture prepared according to the supplier's instructions was quickly added to each well, completing the sample addition within 1 minute to avoid the formation of bubbles. The 96-well plate was then immediately placed back into the microplate reader, shaken for 5 seconds, and using the Kinetic mode, continuous detection was carried out at 37°C for 30 to 60 minutes under the conditions of excitation light at 360 nm and emission light at 420 nm, with detection every 30 seconds. Taking the detection time as the X-axis and the fluorescence signal value as the Y-axis, the tubulin monomer polymerization curve was obtained. As shown in FIG. 66 and Table 40, the larger the Vmax value and the higher the maximum fluorescence signal value of the polymerization curve, the lower the inhibitory efficiency of the compound.

Series [1] concerns Human cutaneous squamous cell carcinoma cell A-431. Nature of the series: Cell proliferation inhibition test, A-431. The series is classed as cell-based. To be noted: A-431, 96 h, 4 days incubation. The protocol: (§1) Human cutaneous squamous cell carcinoma cell A-431 (ATCC, CRL-1555) and actinic keratosis patient-derived cell HT 297.T (ATCC, CRL-7782) proliferation assays were used to detect the inhibitory effect of small molecular compounds on cell proliferation.
A-431 cells and HT 297.T cells were cultured in DMEM medium containing 10% fetal bovine serum and grown at 37°C in a 5% CO2 incubator. Cells on logarithmic phase were seeded into a 96-well cell culture plate at 1000 cells/well, 100 µL per well, and then cultured overnight at 37°C in a 5% CO2 incubator. The next day, 100 µL of gradient-diluted 2× test compound solution was added to each well, with DMSO serving as a positive control, and 10 µM staurosporine (Aladdin, S102392) was set as a negative control group. After the addition of the compounds, the culture plate was incubated for another 4 days at 37°C in a 5% CO2 incubator. After incubation, the Steady-Glo® luciferase assay system (Promega, G9243) was used according to the supplier's instructions to measure the fluorescence signal value on the Envision 2104 Multilabel Reader. The inhibition rate was calculated by the following formula, then the curve was plotted with the Log value of the inhibitor concentration as the X-axis and the inhibition rate as the Y-axis, and the IC50 was calculated using Graphpad 8.0. [formula] […]

The test system of series [2] is actinic keratosis patient-derived cell HT 297.T. Nature of the series: Cell proliferation inhibition test, HT 297.T. The series is classed as cell-based, Human. The following applies: Homo sapiens, 96 h; 4 days incubation. On the procedure: as §1
A-431 cells and HT 297.T cells were cultured in DMEM medium containing 10% fetal bovine serum and grown at 37°C in a 5% CO2 incubator. Cells on logarithmic phase were seeded into a 96-well cell culture plate at 1000 cells/well, 100 µL per well, and then cultured overnight at 37°C in a 5% CO2 incubator. The next day, 100 µL of gradient-diluted 2× test compound solution was added to each well, with DMSO serving as a positive control, and 10 µM staurosporine (Aladdin, S102392) was set as a negative control group. After the addition of the compounds, the culture plate was incubated for another 4 days at 37°C in a 5% CO2 incubator. After incubation, the Steady-Glo® luciferase assay system (Promega, G9243) was used according to the supplier's instructions to measure the fluorescence signal value on the Envision 2104 Multilabel Reader. The inhibition rate was calculated by the following formula, then the curve was plotted with the Log value of the inhibitor concentration as the X-axis and the inhibition rate as the Y-axis, and the IC50 was calculated using Graphpad 8.0. [formula] Table 41: Inhibition results of test compounds on proliferation activity of A-431 and HT 297.T cells

Series [3] in a line: Thermodynamic solubility test. To be noted: thermodynamic from solid, 4 mg/mL, overnight at room temperature. The series is classed as physicochemical. On the procedure:
Phosphate buffer saline (PBS) with a pH of 7.4, FeSSIF solution with a pH of 6.5, and FaSSGF solution with a pH of 1.6 were prepared. The compound was accurately weighed and added to prepared phosphate buffer saline with a pH of 7.4, FeSSIF solution with a pH of 6.5, and FaSSGF solution with a pH of 1.6 to prepare into a solution with a concentration of 4 mg/mL. The solution was shaken at a speed of 1000 rpm for 1 hour, and then incubated overnight at room temperature. The incubated solution was centrifuged at 12,000 rpm for 10 minutes to remove undissolved particles, and the supernatant was transferred to a new centrifuge tube. After the supernatant was appropriately diluted, an acetonitrile solution containing internal standard was added, and a standard curve prepared with the same matrix was used for quantification. Table 42: Thermodynamic solubility test results

Series [4] can be described thus: Pharmacokinetic test in mice. The series is classed as in vivo. The following applies: mouse, plasma, male ICR mice. On the procedure:
For the pharmacokinetic test in mice, 3 male ICR mice, 20 to 25 g, were used, fasted overnight, and administered by tail vein injection (1 mg/kg or 5 mg/kg). Blood was collected before the administration, and at 15 min, 30 min, 1 hour, 2 hours, 4 hours, 8 hours, and 24 hours after the administration. Another 3 mice were taken and administered by oral gavage (5 mg/kg), and blood was collected before the administration, and at 15 min, 30 min, 1 hour, 2 hours, 4 hours, 8 hours, and 24 hours after the administration. Blood samples were centrifuged at 6800 g at 2 to 8°C for 6 min, and plasma was collected and stored at -80°C. The plasma at each time point was taken and added with an acetonitrile solution containing internal standard in 3 to 5 times the amount. The mixture was vortexed and mixed for 1 min, and centrifuged at 13,000 rpm at 4°C for 10 min. The supernatant was collected, added with water in 3 times the amount, and mixed. An appropriate amount of the mixture was taken for LC-MS/MS analysis. The main pharmacokinetic parameters were analyzed using WinNonlin 7.0 software with non-compartmental model. Table 43: Results 1 of pharmacokinetic tests in mice

A short description of series [5]: Human liver microsome stability test. The series is classed as in vitro ADME. The following applies: human liver microsomes, NADPH, 37°C, 0-45 min. The protocol: The human liver microsome stability test was performed by incubating the compound and human liver microsomes in vitro. First, the compound to be tested was prepared into a 10 mM stock solution in DMSO solvent, and then the compound was diluted to 0.5 mM with acetonitrile. Human liver microsomes (Corning) were diluted with PBS into a microsome/buffer solution, and the solution was used to dilute 0.5 mM compound into a working solution, in which the concentration of the compound was 1.5 µM, and the concentration of human liver microsomes was 0.75 mg/mL. A deep-well plate was taken, 30 µL of the working solution was added per well, and then 15 µL of pre-heated 6 mM NADPH solution was added thereto to initiate a reaction, and the reaction was incubated at 37°C. At 0, 5, 15, 30 and 45 min of the incubation, 135 µL of acetonitrile was added to the corresponding wells to terminate the reaction. After the reaction was terminated with acetonitrile at the last time point of 45 min, the deep-well plate was vortexed and shaken for 10 min (600 rpm), and then centrifuged for 15 min. After centrifugation, the supernatant was collected, and added with purified water in a ratio of 1:1 to perform LC-MS/MS detection. A ratio of a peak area of compound to a peak area of internal standard at each time point was obtained, and the peak area ratios of the compound at 5, 15, 30 and 45 min were compared with the peak area ratio at 0 min to calculate the remaining percentage of the compound at each time point. T1/2 was calculated by using GraphPad 5 software. Table 45: Results of human liver microsome stability test

Series [6] can be described thus: Hygroscopicity test by dynamic vapor sorption (DVS). The series is classed as physicochemical. The following applies: DVS, 25°C, 0%RH to 95%RH. On the procedure:
The dynamic vapor sorption (DVS) curve was collected on DVS IntrInsic from SMS (surface measurement systems). The relative humidity at 25°C was corrected using the deliquescence points of LiCl, Mg(NO3)2, and KCl. Table 18 DVS test parameters
The percentage change in sample mass was collected under constant temperature at 25°C as humidity varied from 0%RH to 95%RH.

The nature of series [7]: Solid-state stability (XRPD and HPLC after open storage). The series is classed as physicochemical. To be noted: for Crystal form: XRPD. On the procedure:
The purity test, dynamic solubility test, and stability test in the assay were measured using an Agilent 1260 high-performance liquid chromatograph, and the salt formation molar ratio of ions was tested by ion chromatography, and the analytical conditions are shown in Table 19 and Table 20. Table 19 High-performance liquid chromatography test conditions

A short description of series [8]: Suspension competition test between free form crystal forms A and B. The following applies: in words; at room temperature and 50°C, compared with the free form crystal form B. The series is classed as physicochemical. From the text:
Table 24 Suspension competition test results between free form crystal forms A and B

The nature of series [9]: Dynamic solubility experiment at 37°C (water, SGF, FaSSIF, FeSSIF). To be noted: for S: solubility: solid feed 10 mg/mL; for pH: pH value of the filtrate.
Protocol: Rotating mixing was carried out at 37°C at a solid feed concentration of 10 mg/mL (calculated as the compound of Formula I). […] After sampling at each time point, the samples were centrifuged (10000 rpm) and filtered (0.45 µm PTFE filter head), and the HPLC concentration and pH value of the filtrate were measured.
100 mg of NaCl and 50 mg of Triton X-100 were weighed into a 50 mL volumetric flask, and purified water was added to complete dissolution. 816 µL of 1 M hydrochloric acid was added thereto, and the pH was adjusted to 1.8 with 1 M hydrochloric acid or 1 M NaOH solution. Purified water was added to make up to volume.
340 mg of anhydrous NaH2PO4 and 620 mg of NaCl were weighed into a 100 mL volumetric flask. Purified water was added to complete dissolution, followed by addition of 55.44 µL of 50% NaOH solution, and the pH was adjusted to 6.5 using 1M HCl or 1M NaOH solution. Purified water was added to make up to volume. 110 mg of SIF powder was then weighed into a 50 mL volumetric flask, added with the above solution to complete dissolution and make up to volume.
0.82 mL of glacial acetic acid and 1.18 g of NaCl were added to a 100 mL volumetric flask. Purified water was added to complete dissolution, followed by addition of 528 µL of 50% NaOH solution, and the pH was adjusted to 5.0 using 1M HCl or 1M NaOH solution. Purified water was added to make up to volume. 560 mg of SIF powder was then weighed into a 50 mL volumetric flask, added with the above solution to complete dissolution and make up to volume.
The mark [10] stands for this setting: intravenous injection administration (1 mg/kg).
The mark [11] stands for this setting: oral gavage administration (5 mg/kg).

≈ marks a conversion by molar mass, not a printed value. Like-named read-outs stand apart in the source and are kept apart here.

T1 sequence (P02550 whole entry): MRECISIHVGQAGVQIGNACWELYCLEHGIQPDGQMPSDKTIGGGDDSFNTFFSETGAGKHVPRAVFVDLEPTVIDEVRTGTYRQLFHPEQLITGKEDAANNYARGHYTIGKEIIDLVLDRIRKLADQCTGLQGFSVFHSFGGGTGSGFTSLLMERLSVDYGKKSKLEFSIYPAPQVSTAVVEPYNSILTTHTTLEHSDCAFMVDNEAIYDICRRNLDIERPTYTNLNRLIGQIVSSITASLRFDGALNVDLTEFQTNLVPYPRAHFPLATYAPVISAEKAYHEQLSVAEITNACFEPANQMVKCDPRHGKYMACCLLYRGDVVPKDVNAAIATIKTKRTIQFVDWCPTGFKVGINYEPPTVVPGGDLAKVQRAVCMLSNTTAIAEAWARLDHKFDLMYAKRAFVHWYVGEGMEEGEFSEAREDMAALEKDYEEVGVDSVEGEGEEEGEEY
T1 sequence (P02554 whole entry): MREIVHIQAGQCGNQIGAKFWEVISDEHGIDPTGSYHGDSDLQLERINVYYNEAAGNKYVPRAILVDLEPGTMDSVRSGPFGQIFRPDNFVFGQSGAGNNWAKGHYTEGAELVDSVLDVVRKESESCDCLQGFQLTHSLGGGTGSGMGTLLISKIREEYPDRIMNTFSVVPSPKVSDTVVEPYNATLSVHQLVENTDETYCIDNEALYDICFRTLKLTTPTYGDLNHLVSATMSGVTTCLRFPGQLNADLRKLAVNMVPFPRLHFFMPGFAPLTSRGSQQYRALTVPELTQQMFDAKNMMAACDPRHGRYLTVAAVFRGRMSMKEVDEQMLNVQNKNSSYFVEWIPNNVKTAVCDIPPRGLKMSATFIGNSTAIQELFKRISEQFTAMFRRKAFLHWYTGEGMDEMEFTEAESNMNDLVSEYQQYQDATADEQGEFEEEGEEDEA

As for `O=C(Cc1ccc(-c2ccc(OCCN3CCOCC3)cc2)cn1)NCc1ccccc1` [Control compound, Tirbanibulin, reference compound], the Maximum signal value at tubulin is on record as 611. Also, the values for the concentration for half-maximal inhibition (IC50) in [1] and in series [2] were 40.3 nM and 85.4 nM, respectively. The solubility in [3] (FeSSIF solution, FeSSIF (pH 6.5), read-out: Solubility (µg/mL) FeSSIF (pH 6.5)) came out at 60.5 µg/mL (≈ 140 µM); in [3] (phosphate buffer saline (PBS), aqueous buffer, PBS (pH 7.4), read-out: Solubility (µg/mL) PBS (pH 7.4)) it was 9.77 µg/mL (≈ 22.6 µM). Moreover, the exposure AUC(0-t) is 525 ng·h/mL in series [4] (setting [10]) and 1820 ng·h/mL in [4] (setting [11]). Also, the clearance in series [4] (setting [10]) is 31.3 mL/min/kg. The Cmax in series [4] (setting [11]) worked out at 1010 ng/mL. This compound returned a half-life at 1 µM in series [5] of 32.2 min.
For the compound `Cc1cc(OCCN2C[C@H]3COC[C@H]3C2)ccc1-c1ccc(CC(=O)NCc2ccccc2)nc1` [Free form crystal form A], in [6], the hygroscopicity result is “almost non-hygroscopic”. Also, the “Purity (area%)” value in series [7] (25°C/60%RH/open, 1 week) is 96.76 area%; in series [7] (40°C/75%RH/open, 1 week), 96.70 area%; in series [7] (Initial), 96.86 area%. Further, the “Relative to initial (%)” value in series [7] (25°C/60%RH/open, 1 week) is recorded as 99.9%; in [7] (40°C/75%RH/open, 1 week) it was 99.8%. Also, the Crystal form entry in series [7] (25°C/60%RH/open, 1 week) is reported as “Free form crystal form A”; in series [7] (40°C/75%RH/open, 1 week) it was “Free form crystal form A”. The thermodynamic stability result in [8] is on record as “thermodynamically more stable crystal form”. Also, the “S: solubility” value in series [9] (FaSSIF, 1 hour, 60 min) turned out to be 720 µg/mL; in [9] (FaSSIF, 4 hours, 240 min), 700 µg/mL; in [9] (FaSSIF, 24 hours, 1440 min), 630 µg/mL; in [9] (FeSSIF, 1 hour, 60 min), 3460 µg/mL; in series [9] (FeSSIF, 4 hours, 240 min), 3740 µg/mL; in series [9] (FeSSIF, 24 hours, 1440 min), 3460 µg/mL. Further, the “S: solubility” value was 60 µg/mL in series [9] (H2O, 1 hour, 60 min); 80 µg/mL in [9] (H2O, 4 hours, 240 min); 60 µg/mL in series [9] (H2O, 24 hours, 1440 min); 6710 µg/mL in series [9] (SGF, 1 hour, 60 min); 6770 µg/mL in series [9] (SGF, 4 hours, 240 min); 6610 µg/mL in series [9] (SGF, 24 hours, 1440 min). The pH in series [9] (FaSSIF, 1 hour) amounted to 6.6; in series [9] (FaSSIF, 4 hours) it was 6.6; in series [9] (FaSSIF, 24 hours), 6.6; in [9] (FeSSIF, 1 hour), 5.3; in [9] (FeSSIF, 4 hours) it was 5.4; in series [9] (FeSSIF, 24 hours), 5.4. In addition, the pH in [9] (H2O, 1 hour) is recorded as 8.6; in [9] (H2O, 4 hours), 8.6; in [9] (H2O, 24 hours), 8.5; in series [9] (SGF, 1 hour) it was 5.7; in series [9] (SGF, 4 hours), 5.8; in series [9] (SGF, 24 hours), 5.9.
